These are literature values, as cited in patent publication US20240058414A1, “METHODS OF TREATING MELANOCORTIN-4 RECEPTOR PATHWAY-ASSOCIATED DISORDERS” (RHYTHM PHARMACEUTICALS, INC., priority 2020, published 2024).

The conditions of series [1]: patients with POMC and LEPR deficiency obesity, earlier pivotal studies.
The conditions of series [2]: clinical trials; Chen et al. J. Clin. Endocrinol. Metab. 2015.

Take `CC(=O)N[C@@H](CCCNC(=N)N)C(=O)N[C@H]1CSSC[C@@H](C(N)=O)NC(=O)[C@H](Cc2c[nH]c3ccccc23)NC(=O)[C@H](CCCNC(=N)N)NC(=O)[C@@H](Cc2ccccc2)NC(=O)[C@H](Cc2cnc[nH]2)NC(=O)[C@@H](C)NC1=O` [setmelanotide, Ac-Arg-c(Cys-D-Ala-His-D-Phe-Arg-Trp-Cys)-NH2]: in series [1], the reduction in hunger result was “statistically significant and clinically meaningful reduction in hunger”; the weight loss entry is “rapid and sustained significant and clinically meaningful weight loss”. In addition, the “adverse effect on blood pressure” value in series [2] is “has not been shown to adversely affect blood pressure”.
